According to US20240124408A1 (Sanofi, priority 2020, published 2024):

What was measured:
Format in all cases: cell-based
human TRPM8 [1] = molecular target: T1, human TRPM8 (Homo sapiens, UniProt Q7Z2W7); assay: In vitro human TRPM8 fluorescence calcium flux assay (recombinant CHO cells, Fluo4-AM, FDSS6000); conditions: recombinant CHO cells expressing human TRPM8; menthol-related EC50, normalized to 100 μM menthol
T1 construct: expressed in transfected cells; host or cells: CHO (p658 mammalian expression vector)
T1 sequence (Q7Z2W7 whole entry): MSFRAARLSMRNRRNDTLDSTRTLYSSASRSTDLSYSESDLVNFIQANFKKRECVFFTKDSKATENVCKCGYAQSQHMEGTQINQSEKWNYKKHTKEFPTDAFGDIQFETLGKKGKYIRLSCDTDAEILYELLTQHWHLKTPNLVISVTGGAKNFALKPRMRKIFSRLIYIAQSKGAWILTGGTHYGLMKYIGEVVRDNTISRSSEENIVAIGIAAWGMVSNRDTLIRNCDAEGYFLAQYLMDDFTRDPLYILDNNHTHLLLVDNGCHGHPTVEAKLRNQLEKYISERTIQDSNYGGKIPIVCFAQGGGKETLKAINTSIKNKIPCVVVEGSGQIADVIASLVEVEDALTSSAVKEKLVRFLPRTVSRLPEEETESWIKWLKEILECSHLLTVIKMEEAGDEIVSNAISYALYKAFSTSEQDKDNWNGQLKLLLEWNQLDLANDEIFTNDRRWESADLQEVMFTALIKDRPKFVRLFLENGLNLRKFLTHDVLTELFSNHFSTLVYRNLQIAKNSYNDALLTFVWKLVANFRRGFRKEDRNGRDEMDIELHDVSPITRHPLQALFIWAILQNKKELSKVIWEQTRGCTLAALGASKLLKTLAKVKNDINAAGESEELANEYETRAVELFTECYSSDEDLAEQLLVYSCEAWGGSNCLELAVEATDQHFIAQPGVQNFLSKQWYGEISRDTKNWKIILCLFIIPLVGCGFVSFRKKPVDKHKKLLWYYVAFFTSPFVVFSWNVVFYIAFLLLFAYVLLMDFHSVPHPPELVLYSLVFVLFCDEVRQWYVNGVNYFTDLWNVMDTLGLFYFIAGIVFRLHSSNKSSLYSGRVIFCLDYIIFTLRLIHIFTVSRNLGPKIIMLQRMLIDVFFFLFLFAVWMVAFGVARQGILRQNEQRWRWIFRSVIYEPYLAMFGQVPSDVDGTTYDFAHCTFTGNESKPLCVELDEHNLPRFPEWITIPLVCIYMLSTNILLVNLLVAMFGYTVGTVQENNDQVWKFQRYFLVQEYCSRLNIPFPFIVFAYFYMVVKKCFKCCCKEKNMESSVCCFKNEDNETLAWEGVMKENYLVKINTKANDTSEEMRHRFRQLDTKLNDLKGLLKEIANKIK
Outline: (§1)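 Agonist EC50 values come from sixteen-point dose responses normalized to the 100 μM menthol maximum, fitted sigmoidally. Calcium rise was followed for 3 min post-addition in recombinant CHO lines (human or pig TRPM8). Cells were dye-loaded with 2 μM Fluo4-AM, 1 h at room temperature, probenecid-containing HBSS.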

pig TRPM8 [2] = molecular target: T2, pig TRPM8 (Sus scrofa, UniProt F1SM15); assay: In vitro pig TRPM8 fluorescence calcium flux assay (recombinant CHO cells, Fluo4-AM, FDSS6000); conditions: recombinant CHO cells expressing pig TRPM8; menthol-related EC50, normalized to 100 μM menthol
T2 construct: expressed in transfected cells; host or cells: CHO (pcDNA5/FRT/TO vector; hygromycin B and blasticidin selection)
T2 sequence (F1SM15 1-1104): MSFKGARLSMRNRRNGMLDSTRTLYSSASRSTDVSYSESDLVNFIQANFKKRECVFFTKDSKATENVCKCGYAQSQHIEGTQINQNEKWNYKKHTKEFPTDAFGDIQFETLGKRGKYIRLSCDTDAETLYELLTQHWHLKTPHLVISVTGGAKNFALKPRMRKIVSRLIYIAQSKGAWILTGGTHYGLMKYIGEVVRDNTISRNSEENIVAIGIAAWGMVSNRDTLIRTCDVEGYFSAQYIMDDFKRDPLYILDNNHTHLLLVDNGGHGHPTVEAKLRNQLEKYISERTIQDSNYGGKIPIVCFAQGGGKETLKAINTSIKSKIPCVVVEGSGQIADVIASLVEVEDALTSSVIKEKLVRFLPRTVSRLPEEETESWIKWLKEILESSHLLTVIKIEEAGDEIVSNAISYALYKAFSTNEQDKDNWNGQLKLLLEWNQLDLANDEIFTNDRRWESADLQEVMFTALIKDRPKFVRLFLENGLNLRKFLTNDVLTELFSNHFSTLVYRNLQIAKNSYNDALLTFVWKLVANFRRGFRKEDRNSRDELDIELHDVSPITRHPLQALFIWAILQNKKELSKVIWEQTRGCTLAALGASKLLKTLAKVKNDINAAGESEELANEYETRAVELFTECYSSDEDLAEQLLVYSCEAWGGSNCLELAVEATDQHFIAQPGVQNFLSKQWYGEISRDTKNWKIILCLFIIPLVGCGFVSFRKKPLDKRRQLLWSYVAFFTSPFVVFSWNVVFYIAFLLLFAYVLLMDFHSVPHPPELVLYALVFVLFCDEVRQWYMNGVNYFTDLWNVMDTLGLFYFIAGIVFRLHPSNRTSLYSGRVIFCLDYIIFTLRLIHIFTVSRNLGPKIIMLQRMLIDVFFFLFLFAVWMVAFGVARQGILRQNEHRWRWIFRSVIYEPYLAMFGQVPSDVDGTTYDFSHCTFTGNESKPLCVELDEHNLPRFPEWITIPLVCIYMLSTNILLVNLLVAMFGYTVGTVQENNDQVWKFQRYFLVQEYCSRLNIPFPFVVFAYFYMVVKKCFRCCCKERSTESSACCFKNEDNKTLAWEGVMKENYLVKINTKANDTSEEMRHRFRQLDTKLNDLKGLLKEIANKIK
Outline: as §1

human TRPM8 [3] = molecular target: T1, human TRPM8; assay: In vitro human TRPM8 automated patch-clamp assay (SyncroPatch 384PE, CHO cells); conditions: CHO cells expressing human TRPM8, 28° C.
Outline: (§2)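 Whole-cell automated patch clamp on engineered CHO lines at 28 °C, held at −60 mV, with −80 to +80 mV ramps every 5 s; one compound concentration per well. Peak current minus pre-addition baseline was normalised to no-compound control and Emax, and EC50 was fitted; 200 μM menthol wells served as control.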

pig TRPM8 [4] = molecular target: T2, pig TRPM8; assay: In vitro pig TRPM8 automated patch-clamp assay (SyncroPatch 384PE, CHO cells); conditions: CHO cells expressing pig TRPM8, 28° C.
Outline: as §2

SMILES	EC50 (human TRPM8 [1])	EC50 (pig TRPM8 [2])	EC50 (human TRPM8 [3])	EC50 (pig TRPM8 [4])
CC(CNC(=O)[C@]1(O)C[C@H](C)CC[C@H]1C(C)C)c1ccccc1 (stereo partly drawn) [Example 156, (1S,2S,5R)-1-hydroxy-2-isopropyl-5-methyl-N-(2-phenylpropyl)cyclohexanecarboxamide]	42.4 nM	21.5 nM	1800 nM	1900 nM
CC(C)[C@@H]1CC[C@@H](C)C[C@@]1(O)C(=O)NCCc1ccncc1 [Example 119, (1S,2S,5R)-1-hydroxy-2-isopropyl-5-methyl-N-[2-(4-pyridyl)ethyl]cyclohexanecarboxamide]	37.4 nM	6.3 nM	3200 nM	7210 nM
COc1ccccc1C(F)(F)CNC(=O)[C@]1(O)C[C@H](C)CC[C@H]1C(C)C [Example 186, (1S,2S,5R)—N-[2,2-difluoro-2-(2-methoxyphenyl)ethyl]-1-hydroxy-2-isopropyl-5-methyl-cyclohexanecarboxamide]	43.9 nM	26.1 nM	1000 nM	2100 nM
CC(C)[C@@H]1CC[C@@H](C)C[C@@]1(O)C(=O)NCC(CO)c1ccccc1 (single isomer, unassigned) [Example 89]	90.3 nM	47.6 nM	3300 nM	3250 nM
CCOC(=O)c1cccc(CCNC(=O)[C@]2(O)C[C@H](C)CC[C@H]2C(C)C)c1 [Example 28, ethyl 3-(2-((1S,2S,5R)-1-hydroxy-2-isopropyl-5-methylcyclohexane-1-carboxamido)ethyl)benzoate]	250 nM	311 nM	1440 nM	5400 nM
COC(=O)Cc1cccc(CCNC(=O)[C@]2(O)C[C@H](C)CC[C@H]2C(C)C)c1 [Example 74, methyl 2-(3-(2-((1S,2S,5R)-1-hydroxy-2-isopropyl-5-methylcyclohexane-1-carboxamido)ethyl)phenyl)acetate]	41 nM	9 nM	2900 nM	5190 nM
Cc1cccc(C(F)(F)CNC(=O)[C@]2(O)C[C@H](C)CC[C@H]2C(C)C)c1 [Example 187, (1S,2S,5R)—N-[2,2-difluoro-2-(3-methylphenyl)ethyl]-1-hydroxy-2-isopropyl-5-methyl-cyclohexanecarboxamide]	33.8 nM	6.2 nM	510 nM	550 nM

Stronger by EC50 (human TRPM8 [1]), values ahead:

EC50 (human TRPM8 [1])	EC50 (pig TRPM8 [2])	EC50 (human TRPM8 [3])	EC50 (pig TRPM8 [4])	SMILES
13.5 nM	5 nM	2630 nM	4600 nM	CC(C)[C@@H]1CC[C@@H](C)C[C@@]1(O)C(=O)NCCc1cccc(C#N)c1 [Example 48, (1S,2S,5R)—N-(3-cyanophenethyl)-1-hydroxy-2-isopropyl-5-methylcyclohexane-1-carboxamide]
14.5 nM	28.1 nM	600 nM	567 nM	CC(C)[C@@H]1CC[C@@H](C)C[C@@]1(O)C(=O)NCC(NC(=O)CN)c1ccccc1 (single isomer, unassigned) [Example 184]
3.2 nM	6.6 nM	1400 nM	1420 nM	COC(=O)[C@@H](N)Cc1cccc(CCNC(=O)[C@]2(O)C[C@H](C)CC[C@H]2C(C)C)c1 [Example 20, methyl (S)-2-amino-3-(3-(2-((1S,2S,5R)-1-hydroxy-2-isopropyl-5-methylcyclohexane-1-carboxamido)ethyl)phenyl)propanoate]
3.3 nM	2.5 nM	1300 nM	504 nM	CC(C)[C@@H]1CC[C@@H](C)C[C@@]1(O)C(=O)NCCc1ccccc1O [Example 116, (1S,2S,5R)-1-hydroxy-N-[2-(2-hydroxyphenyl)ethyl]-2-isopropyl-5-methyl-cyclohexanecarboxamide]
6.4 nM	7.7 nM	1070 nM	1500 nM	CC(C)[C@@H]1CC[C@@H](C)C[C@@]1(O)C(=O)N[C@@H]1COc2ccccc2C1 [Example 94, (1S,2S,5R)—N-((3S)-chroman-3-yl)-1-hydroxy-2-isopropyl-5-methylcyclohexane-1-carboxamide]
